`Cc1cc(=O)n2cccc(OCc3ccc(Cl)cc3Cl)c2n1` gave a melting point of 180 to 182 °C.
Work on `Cn1c(OC2CCOC2)nn(C(=O)Oc2ccccc2)c1=O` (stereo not given) yielded a melting point of 98 °C.
Work on `Nc1nc(OCCc2ccc(Cl)cc2)nc2c1ncn2C1OC(CO)C(O)C1O` (stereo not given) yielded a melting point of 156 to 159 °C.
With `CNC(=O)c1cc(-c2ccc(OC)cc2)nn(CC2CC2)c1=O` the melting point was 137 to 138 °C.
With `O=C1CN2CCCCC2=NN1c1ccc(Cl)cc1Cl` the melting point was 115 to 117 °C.
`Cc1nc(-c2cccc(C(F)(F)F)c2)oc1COc1ccc(CCC(=O)O)cc1` showed a melting point of 134 to 135 °C.
In the case of `CCOC(=O)N1CCN(c2ccc(-n3cnn(C(C)(C)C(=O)c4ccc(Cl)cc4)c3=O)cc2)CC1`, the melting point is reported as 137 °C.
Molecule `COC1=CC(=O)C(Br)=CC1=O` has a melting point of 184 to 186 °C.
With `CCCOc1ccc(S(C)(=O)=O)cc1-c1nc2c(CC)nn(Cc3ccccn3)c2c(=O)[nH]1` the melting point was 209 to 211 °C.
In the case of `Cc1ccc2nc(CCl)n3cnnc3c2c1`, the melting point is reported as 175 °C.
`COC(=O)c1ccc(-c2oc3nc[nH]c(=O)c3c2C(=O)OCc2ccccc2)cc1` gave a melting point of 248 to 249 °C.
`CC1(C(O)(C=Cc2ccc(Cl)cc2)Cn2cncn2)CC1(F)F` (stereo not given) gave a melting point of 131 °C.
Work on `O=C1C=C(Nc2ccccc2F)CCN1` yielded a melting point of 98 to 100 °C.
`O=C(O)CNC(=O)c1ccccc1NC(=O)c1ccccc1O` gave a melting point of 222 to 224 °C.
Work on `CCc1oc2ccccc2c1C(O)c1ccccc1` (stereo not given) yielded a melting point of 98 to 99 °C.
With `N#CC1(C#N)C2C=CC(C2)C1(Cl)C(F)(F)F` (stereo not given) the melting point was 173 °C.
With `COC(=O)c1ccc([C@H]2CC[C@H](C=O)CC2)cc1` the melting point was 84 to 85 °C.
Work on `CCN(CC)c1ccc(C2OC(=O)c3cc(N(C)C)ccc32)c(C)c1` (stereo not given) yielded a melting point of 123 to 125 °C.
Molecule `O=C1SC(Cc2ccc(OCCc3c[nH]c4ccccc34)cc2)C(=O)N1C(c1ccccc1)(c1ccccc1)c1ccccc1` (stereo not given) has a melting point of 81 to 82.5 °C.
`CCCCC(O)CNCCCCCCCCCCNCC(O)CCCC` (stereo not given) gave a melting point of 127 to 137 °C.
Molecule `CN(CCc1ccc(NS(C)(=O)=O)cc1)Cc1cc2cc(NS(C)(=O)=O)ccc2o1` has a melting point of 177 to 179 °C.
For `CCCCN(C(=O)NCCCCCCNC(=O)N(CCCC)C1CC(C)(CC)NC(C)(CC)C1C)C1CC(C)(CC)NC(C)(CC)C1C` (stereo not given), the melting point was 146 °C.
`CCOC(=O)c1cnc2cc(F)c(F)cc2c1Cl` gave a melting point of 111 °C.
Molecule `OCCSCc1ccc(CSCCO)cc1` has a melting point of 90 to 92 °C.
`CCCCCCCCCCNC(=O)C1=C(C(=O)Nc2cc(OC3CCCC3)c(Cl)cc2F)CCCC1` gave a melting point of 128 to 130 °C.
`Cc1cccc2c(=O)c(CS(C)(=O)=O)cn(C)c12` showed a melting point of 244 to 246 °C.
With `CC(=O)OC1CSC(Oc2cncc(-c3c(C)noc3C)c2)C(OC(C)=O)C1OC(C)=O` (stereo not given) the melting point was 129 to 131 °C.
Molecule `COCc1nc2cnc3ccccc3c2n1CC(C)(C)O` has a melting point of 145 to 148 °C.
In the case of `Cc1nc(Sc2ccc([N+](=O)[O-])cc2)nc(C)c1Cl`, the melting point is reported as 110 °C.
With `C=CC(=O)N[C@@H](C=O)[C@@H](O)[C@H](O)[C@H](O)CO` the melting point was 124 to 125 °C.
`C=CCNC(=O)N1C[C@@H](Oc2cccc(C(F)(F)F)c2)[C@@H]1C` (relative stereo) gave a melting point of 55 to 57 °C.
Work on `CN(C)c1ccc(C2OCCN2CCNc2ccc(NCCN3CCOC3c3ccc(N(C)C)cc3)c3c2C(=O)c2c(O)ccc(O)c2C3=O)cc1` (stereo not given) yielded a melting point of 150 to 154 °C.
Work on `CC(C)(c1ccccc1)n1nnc(-c2ccccc2-c2ccc(C3OCCCO3)cc2)n1` yielded a melting point of 102 to 106 °C.
Molecule `COCc1ccc(-c2csc(-c3ccncc3)n2)c(=O)[nH]1` has a melting point of 249 to 254 °C.
Molecule `O=C(O)c1ccc(-c2ccc(-c3ccc(Cl)cc3)s2)cc1` has a melting point of 285 to 286 °C.
`COc1ccc2c(c1)OCC(Cc1cccnc1)C2=O` (stereo not given) gave a melting point of 95 to 99 °C.
With `CN(C)c1ccc2c(c1)C(=O)N(c1ccc3c(c1)CCN3C)C2` the melting point was 268 to 270 °C.
With `Cc1cccc2c(CCN3CCCCC3)c(-c3ccccc3)[nH]c12` the melting point was 159 to 161 °C.
In the case of `COc1ccc(-n2nc(CO)c3c2CCC3)cc1`, the melting point is reported as 88 to 89 °C.
Molecule `Cc1ccccc1OCC(O)COc1cccc2oc(C(=O)O)cc(=O)c12` (stereo not given) has a melting point of 95 to 97 °C.

Reference: a melting point compilation (Tetko et al.; mined from patent text by program, amines drawn as free bases though some values may be those of a salt)
